Source: ChEMBL document CHEMBL4823282, “Novel Broad-Spectrum Antimicrobial Peptide Derived from Anoplin and Its Activity on Bacterial Pneumonia in Mice” (J Med Chem, 2021)
≈ marks a conversion by molar mass, not a printed value. Calls of active or inactive are those of the source. No cut-off for these calls is given here. Where a SMILES comes first, the peptide text is derived from it. Bridges are numbered along the chain shown (N, C = ends). [ ]: non-standard residue; d: D form. The star is where a group is joined. X1 = CC[C@H](C)CCCCC(=O)*; Dab = NCC[C@H](N)C(=O)O

Columns and labels:
[1] = Selectivity ratio of MHC10 for BALB/C mouse erythrocytes to MIC for gram positive bacteria; type: toxicity
Cell membrane [2] = assay: Disruption of membrane integrity in Staphylococcus aureus ATCC 25923 assessed as bacterial death at 1 times MIC measured within 0.5 hrs by scanning electron microscopy; type: subcellular
Pseudomonas aeruginosa [3] = assay: Antibacterial activity against Pseudomonas aeruginosa ATCC 27853 incubated for 18 hrs by CLSI based broth dilution method; type: functional
Cell membrane [4] = assay: Disruption of membrane integrity in Staphylococcus aureus ATCC 25923 assessed as membrane shrinking at 1 times MIC measured within 0.5 hrs by scanning electron microscopy; type: subcellular
Pseudomonas aeruginosa [5] = assay: Synergistic antibacterial activity against Pseudomonas aeruginosa ATCC 27853 at 2 times MIC incubated for 18 to 24 hrs in presence of 2 times MIC of rifampicin by broth microdilution assay based checkerboard assay; type: functional; details: time 18-24 hrs
Klebsiella pneumoniae [6] = assay: Antibacterial activity against Klebsiella pneumoniae ATCC 700603 incubated for 18 hrs by CLSI based broth dilution method; type: functional
Cell membrane [7] = assay: Induction of inner membrane permeabilization in Klebsiella pneumoniae ATCC 700603 at 0.5 to 4MIC using ONPG as substrate by spectroscopic method; type: subcellular; details: Klebsiella pneumoniae 700603, 0.5 to 4M
[8] = Selectivity ratio of MHC10 for BALB/C mouse erythrocytes to MIC for fungi; type: toxicity
Staphylococcus aureus [9] = assay: Disruption of membrane integrity in Staphylococcus aureus ATCC 25923 assessed as membrane blebbing at 1 times MIC measured within 0.5 hrs by scanning electron microscopy; type: functional, organism-based
[10] = Selectivity ratio of MHC10 for BALB/C mouse erythrocytes to MIC for bacteria; type: toxicity
Enterococcus faecalis = assay: Antibacterial activity against Enterococcus faecalis ATCC 29212 incubated for 18 hrs by CLSI based broth dilution method; type: functional
[11] = Toxicity in BALB/C mouse assessed as mouse death at 15 to 25 mg/kg, ip measured within 2 days; type: organism-based; details: in vivo, 48 h, dose 15-25 mg/kg, time 2 day
Klebsiella pneumoniae [12] = assay: Bactericidal activity against Klebsiella pneumoniae 700603 at 2MIC by time-kill assay relative to control; type: functional
[13] = system: Staphylococcus epidermidis; assay: Antibacterial activity against Staphylococcus epidermidis ATCC 12228 incubated for 18 hrs by CLSI based broth dilution method; type: functional
Bacteria [14] = assay: Antibacterial activity against Gram-negative bacteria incubated for 18 hrs by CLSI based broth dilution method; type: functional
Fungi = assay: Antibacterial activity against fungi incubated for 18 hrs by CLSI based broth dilution method; type: functional
Staphylococcus aureus [15] = assay: Disruption of bacterial cell membrane in Staphylococcus aureus ATCC 25923 assessed as increase in PI uptake incubated for 30 to 120 mins by FACS flow cytometry; type: functional, organism-based; details: time 30-120 min
Lipopolysaccharide (LPS) [16] = assay: Binding affinity to LPS (unknown origin) assessed as bacterial killing at 2 times MIC preincubated for 1 hr followed by Escherichia coli ATCC 25922 addition and measured after 2 hrs by absorbance method; details: time 3.0 hrs
Cell membrane [17] = assay: Disruption of membrane integrity in Klebsiella pneumoniae ATCC 700603 assessed as bacterial death at 1 times MIC incubated for 0.5 to 2 hrs by scanning electron microscopy; type: subcellular; details: Klebsiella pneumoniae 700603, time 0.5-2 hrs
Staphylococcus aureus [18] = assay: Bactericidal activity against Staphylococcus aureus ATCC 25923 at 2MIC by time-kill assay; type: functional, organism-based; details: time 24.0 hrs, TDE = time-dependent effect
[19] = Cytotoxicity against human glomerular mesangial cells incubated for 12 hrs by MTT assay; type: cell-based; details: Glomerular mesangial cell
Bacillus subtilis = assay: Antibacterial activity against Bacillus subtilis ATCC 23857 incubated for 18 hrs by CLSI based broth dilution method; type: functional
Klebsiella pneumoniae [20] = assay: Antibacterial activity against Klebsiella pneumoniae ATCC 700603 infected in BALB/C mouse assessed as reduction in bacterial load in lung at 5 mg/kg, ip measured within 24 hrs by agar plate counting method (reference value: 2.77 x 10^7 CFU/mg); type: functional
Acinetobacter baumannii = assay: Antibacterial activity against Acinetobacter baumannii ATCC 19606 incubated for 18 hrs by CLSI based broth dilution method; type: functional; details: ATCC 19606 = CIP 70.34 = JCM 6841
Pseudomonas aeruginosa [21] = assay: Antibacterial activity against gentamicin-resistant Pseudomonas aeruginosa ATCC 27853 incubated for 18 hrs by CLSI based broth dilution method; type: functional
[22] = Selectivity ratio of MHC10 for BALB/C mouse erythrocytes to MIC for gram-negative bacteria; type: toxicity
Klebsiella pneumoniae [23] = assay: Synergistic antibacterial activity against Klebsiella pneumoniae ATCC 700603 at 2 times MIC incubated for 18 to 24 hrs in presence of 2 times MIC of gentamycin by broth microdilution assay based checkerboard assay; type: functional; details: time 18-24 hrs
Lipopolysaccharide (LPS) [24] = assay: Binding affinity to LPS (unknown origin) assessed as bacterial killing at 2 times MIC preincubated for 1 hr followed by Escherichia coli ATCC 25922 addition and measured after 2 hrs by absorbance method relative to polymyxin B; details: time 3.0 hrs
Bacteria [25] = assay: Antibacterial activity against Gram-positive bacteria incubated for 18 hrs by CLSI based broth dilution method; type: functional
Erythrocyte = assay: Hemolytic activity in BALB/C mouse erythrocytes incubated for 1 hr by absorbance method; type: ADME, cell-based
Staphylococcus aureus [26] = assay: Antibacterial activity against Staphylococcus aureus ATCC 25923 incubated for 18 hrs by CLSI based broth dilution method; type: functional
Staphylococcus aureus [27] = assay: Antibacterial activity against Staphylococcus aureus ATCC 25923 at 0.5 to 1 times MIC incubated for 24 hrs by crystal violet staining based assay; type: functional, organism-based
Escherichia coli [28] = assay: Antibacterial activity against Escherichia coli ATCC 25922 incubated for 18 hrs by CLSI based broth dilution method; type: functional
Bacteria [29] = assay: Antibacterial activity against bacteria incubated for 18 hrs by CLSI based broth dilution method; type: functional
[30] = Toxicity in ip dosed BALB/C mouse measured within 14 days by Karber-method; type: organism-based; details: in vivo, time 14 day
Pseudomonas aeruginosa [31] = assay: Antibacterial activity against rifampin-resistant Pseudomonas aeruginosa ATCC 27853 incubated for 18 hrs by CLSI based broth dilution method; type: functional
Escherichia coli [32] = assay: Synergistic antibacterial activity against Escherichia coli ATCC 25922 at 2 times MIC incubated for 18 to 24 hrs in presence of 2 times MIC of rifampicin by broth microdilution assay based checkerboard assay; type: functional; details: time 18-24 hrs
Klebsiella pneumoniae [33] = assay: Synergistic antibacterial activity against Klebsiella pneumoniae ATCC 700603 at 2 times MIC incubated for 18 to 24 hrs in presence of 2 times MIC of rifampicin by broth microdilution assay based checkerboard assay; type: functional; details: time 18-24 hrs
Cell membrane [34] = assay: Disruption of membrane integrity in Klebsiella pneumoniae ATCC 700603 assessed as membrane cracking at 1 times MIC incubated for 0.5 to 2 hrs by scanning electron microscopy; type: subcellular; details: Klebsiella pneumoniae 700603, time 0.5-2 hrs
Cell membrane [35] = assay: Induction of outer membrane permeabilization in Klebsiella pneumoniae ATCC 700603 at 4MIC measured within 20 mins by N-phenylnaphthylamine dye based fluorescent method; type: subcellular; details: Klebsiella pneumoniae 700603
Staphylococcus aureus [36] = assay: Antibacterial activity against Staphylococcus aureus ATCC 25923 incubated with 2000 ug/ml chymotrypsin for 6 hrs followed by bacterial addition and measured after 18 hrs by CLSI based broth dilution method; type: functional, organism-based; details: dose 2000.0 µg/ml, time 23.0 hrs
[37] = 2M, TDE = time-dependent effect

SMILES	selectivity ratio at 18 h [1]	Activity (Cell membrane [2])	MIC (Pseudomonas aeruginosa [3])	Activity (Cell membrane [4])	FIC (Pseudomonas aeruginosa [5])	MIC (Klebsiella pneumoniae [6])	Activity (Cell membrane [7])	selectivity ratio [8]	Activity (Staphylococcus aureus [9])	selectivity ratio [10]	MIC (Enterococcus faecalis)	Activity [11]	Activity (Klebsiella pneumoniae [12]; [37])	MIC [13]	MIC (Bacteria [14])	MIC (Fungi)	Activity (Staphylococcus aureus [15])	Activity (Lipopolysaccharide (LPS) [16])	Activity (Cell membrane [17])	Activity (Staphylococcus aureus [18])	further results
NCCCC[C@H](NC(=O)[C@H](CCCCN)NC(=O)[C@H](Cc1c[nH]c2ccccc12)NC(=O)[C@H](CCCCN)NC(=O)[C@H](CCCCN)NC(=O)[C@H](Cc1c[nH]c2ccccc12)NC(=O)[C@H](Cc1c[nH]c2ccccc12)NC(=O)[C@@H](N)CCCCN)C(=O)N[C@@H](Cc1c[nH]c2ccccc12)C(=O)N[C@@H](Cc1c[nH]c2ccccc12)C(N)=O (H-KWWKKWKKWW-NH2)	28.2	Active	4 µM (≈ 6.36 µg/mL)	Active	0.5625	8 µM (≈ 12.7 µg/mL)	inactive	28.2	Active	28.2	8 µM (≈ 12.7 µg/mL)	Toxic	Tde	4 µM (≈ 6.36 µg/mL)	4.76 µM (≈ 7.56 µg/mL)	4.76 µM (≈ 7.56 µg/mL)	Active	Dose-Dependent Effect	Active	Tde	Activity (Klebsiella pneumoniae [12]): 100%; IC50 [19]: 40.2 µM; MIC (Bacillus subtilis): 4 µM (≈ 6.36 µg/mL); Activity (Klebsiella pneumoniae [20]): 4.12 10^4CFU/mg; MIC (Acinetobacter baumannii): 8 µM (≈ 12.7 µg/mL); MIC (Pseudomonas aeruginosa [21]): 2 µM (≈ 3.18 µg/mL); selectivity ratio [22]: 28.2; FIC (Klebsiella pneumoniae [23]): 0.5625; fold change (FC) (Lipopolysaccharide (LPS) [24]): 2; MIC (Bacteria [25]): 4.76 µM (≈ 7.56 µg/mL); MHC10 (Erythrocyte): 134.38 µM; MIC (Staphylococcus aureus [26]): 4 µM (≈ 6.36 µg/mL); Activity (Staphylococcus aureus [27]): Active; MIC (Escherichia coli [28]): 4 µM (≈ 6.36 µg/mL); MIC (Bacteria [29]): 4.76 µM (≈ 7.56 µg/mL); LD50 at 336 h [30]: 66.5 mg/kg; MIC (Pseudomonas aeruginosa [31]): 2 µM (≈ 3.18 µg/mL); FIC (Escherichia coli [32]): 0.75; FIC (Klebsiella pneumoniae [33]): 0.3125
CC[C@H](C)CCCCC(=O)N[C@@H](CCN)C(=O)N[C@H](C(=O)N[C@@H](CCN)C(=O)N[C@H]1CCNC(=O)[C@H]([C@@H](C)O)NC(=O)[C@H](CCN)NC(=O)[C@H](CCN)NC(=O)[C@H](CC(C)C)NC(=O)[C@@H](Cc2ccccc2)NC(=O)[C@H](CCN)NC1=O)[C@@H](C)O (X1-[Dab]T[Dab][Dab][Dab][dF]L[Dab][Dab]T; lactam 4-C)	19	inactive	4 µM (≈ 4.81 µg/mL)	inactive	0.3125	4 µM (≈ 4.81 µg/mL)	inactive	4150	inactive	4150	128 µM (≈ 154 µg/mL)	Toxic	Tde	32 µM (≈ 38.5 µg/mL)	5.66 µM (≈ 6.81 µg/mL)	12.3 µM (≈ 14.9 µg/mL)	inactive	Dose-Dependent Effect	Active	Tde	Activity (Cell membrane [34]): Active; Activity (Cell membrane [35]): Active; Activity (Staphylococcus aureus [36]): Active; IC50 [19]: ≥ 512 µM; MIC (Bacillus subtilis): 8 µM (≈ 9.63 µg/mL); Activity (Klebsiella pneumoniae [20]): 3.21 10^4CFU/ml; MIC (Acinetobacter baumannii): 32 µM (≈ 38.5 µg/mL); MIC (Pseudomonas aeruginosa [21]): 2 µM (≈ 2.41 µg/mL); selectivity ratio [22]: 90.5; FIC (Klebsiella pneumoniae [23]): 0.5; MIC (Bacteria [25]): 26.9 µM (≈ 32.4 µg/mL); MHC10 (Erythrocyte): >= 512 uM; MIC (Staphylococcus aureus [26]): 16 µM (≈ 19.3 µg/mL); Activity (Staphylococcus aureus [27]): Active; MIC (Escherichia coli [28]): 4 µM (≈ 4.81 µg/mL); MIC (Bacteria [29]): 12.3 µM (≈ 14.9 µg/mL); LD50 at 336 h [30]: 16.4 mg/kg; MIC (Pseudomonas aeruginosa [31]): 2 µM (≈ 2.41 µg/mL); FIC (Escherichia coli [32]): 0.125; FIC (Klebsiella pneumoniae [33]): 0.3125
